The target of this test is T1, human GPR84 receptor (Homo sapiens, UniProt Q9NQS5).
T1 construct: frozen aliquots prepared by acCELLerate; host or cells: CHO-K1
T1 sequence (Q9NQS5 whole entry): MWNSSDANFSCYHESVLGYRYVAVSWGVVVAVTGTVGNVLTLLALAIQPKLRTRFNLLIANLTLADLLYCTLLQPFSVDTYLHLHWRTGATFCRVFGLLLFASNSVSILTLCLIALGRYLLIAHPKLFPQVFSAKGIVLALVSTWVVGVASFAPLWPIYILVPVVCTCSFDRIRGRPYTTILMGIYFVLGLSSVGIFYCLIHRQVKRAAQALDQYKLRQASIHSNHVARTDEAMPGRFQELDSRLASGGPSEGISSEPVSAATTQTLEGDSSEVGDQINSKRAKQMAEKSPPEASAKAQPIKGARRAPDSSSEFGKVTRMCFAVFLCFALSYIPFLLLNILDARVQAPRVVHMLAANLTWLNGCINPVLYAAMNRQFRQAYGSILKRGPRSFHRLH
Description: cAMP HTRF assay for identification of cellular GPR84 antagonists. As to conditions: CHO-K1 cells stably expressing human GPR84; Forskolin + agonist 6-OAU (EC80); average or median values. It is filed as cell-based. A digest of the protocol: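 Forskolin-stimulated CHO-K1 cells stably expressing human GPR84, agonist-suppressed cAMP measured by HTRF (665/620 ratio) after lysis. Compounds at 11 concentrations, 20 μM to 0.07 nM, duplicate; normalized to DMSO and no-agonist controls; IC50 by 4-parameter fit.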
As for `O=C(NCc1cncs1)c1oc2c(c1C(F)(F)F)-c1nn(C[C@H]3COCCO3)cc1CC2` [Example 230, 2-[(2S)-1,4-Dioxan-2-ylmethyl]-N-(1,3-thiazol-5-ylmethyl)-8-(trifluormethyl)-4,5-dihydro-2H-furo[2,3-g]indazol-7-carboxamide], the IC50 (commonly the concentration at which inhibition is half-maximal) was 881 nM.

For the compound `Cc1ccnc(CCNC(=O)c2oc3c(c2C(F)(F)F)-c2nn(C[C@H]4COCCO4)cc2CC3)c1` [Example 231, 2-[(2S)-1,4-Dioxan-2-ylmethyl]-N-[2-(4-methylpyridin-2-yl)ethyl]-8-(trifluormethyl)-4,5-dihydro-2H-furo[2,3-g]indazol-7-carboxamide], the IC50 turned out to be 1390 nM.

Regarding `O=C(NCCc1ccccn1)c1oc2c(c1C(F)(F)F)-c1nn(C[C@H]3COCCO3)cc1CC2` [Example 233, 2-[(2S)-1,4-Dioxan-2-ylmethyl]-N-[2-(pyridin-2-yl)ethyl]-8-(trifluormethyl)-4,5-dihydro-2H-furo[2,3-g]indazol-7-carboxamide], the IC50 is 1120 nM.

Take `Cc1ccn(CCNC(=O)c2oc3c(c2C(F)(F)F)-c2nn(C[C@H]4COCCO4)cc2CC3)n1` [Example 234, 2-[(2S)-1,4-Dioxan-2-ylmethyl]-N-[2-(3-methyl-1H-pyrazol-1-yl)ethyl]-8-(trifluormethyl)-4,5-dihydro-2H-furo[2,3-g]indazol-7-carboxamide]: the IC50 amounted to 3470 nM.

`O=C(NCCc1c[nH]cn1)c1oc2c(c1C(F)(F)F)-c1nn(C[C@H]3COCCO3)cc1CC2` [Example 235, 2-[(2S)-1,4-Dioxan-2-ylmethyl]-N-[2-(1 H-imidazol-4-yl)ethyl]-8-(trifluormethyl)-4,5-dihydro-2H-furo[2,3-g]indazol-7-carboxamide]: the IC50 was 1600 nM.

Turning to `O=C(NCCc1cccnc1)c1oc2c(c1C(F)(F)F)-c1nn(C[C@H]3COCCO3)cc1CC2` [Example 236, 2-[(2S)-1,4-Dioxan-2-ylmethyl]-N-[2-(pyridin-3-yl)ethyl]-8-(trifluormethyl)-4,5-dihydro-2H-furo[2,3-g]indazol-7-carboxamide], the concentration for half-maximal inhibition (IC50) is 8760 nM.

Consider `O=C(NCCc1nccs1)c1oc2c(c1C(F)(F)F)-c1nn(C[C@H]3COCCO3)cc1CC2` [Example 237, 2-[(2S)-1,4-Dioxan-2-ylmethyl]-N-[2-(1,3-thiazol-2-yl)ethyl]-8-(trifluormethyl)-4,5-dihydro-2H-furo[2,3-g]indazol-7-carboxamide], for which the IC50 is 496 nM.

Turning to `Cc1cccc(CNC(=O)c2oc3c(c2C(F)(F)F)-c2nn(C[C@H]4COCCO4)cc2CC3)n1` [Example 238, 2-[(2S)-1,4-Dioxan-2-ylmethyl]-N-[(6-methylpyridin-2-yl)methyl]-8-(trifluormethyl)-4,5-dihydro-2H-furo[2,3-g]indazol-7-carboxamide], the IC50 is 500 nM.

Take `O=C(NCc1cocn1)c1oc2c(c1C(F)(F)F)-c1nn(C[C@H]3COCCO3)cc1CC2` [Example 239, 2-[(2S)-1,4-Dioxan-2-ylmethyl]-N-(1,3-oxazol-4-ylmethyl)-8-(trifluormethyl)-4,5-dihydro-2H-furo[2,3-g]indazol-7-carboxamide]: the IC50 worked out at 136 nM.

Take `O=C(NCCc1cnccn1)c1oc2c(c1C(F)(F)F)-c1nn(C[C@H]3COCCO3)cc1CC2` [Example 240, 2-{[(2S)-1,4-dioxan-2-yl]methyl}-N-[2-(pyrazin-2-yl)ethyl]-8-(trifluoromethyl)-4,5-dihydro-2H-furo[2,3-g]indazole-7-carboxamide]: the IC50 was found to be 2810 nM.

Take `O=C(NC[C@@H]1COCCO1)c1oc2c(c1C(F)(F)F)-c1nn(CC3CCOCC3)cc1CC2` [Example 242, N-{[(2R)-1,4-dioxan-2-yl]methyl}-2-[(oxan-4-yl)methyl]-8-(trifluoromethyl)-4,5-dihydro-2H-furo[2,3-g]indazole-7-carboxamide]: the 50% inhibitory concentration (IC50) is 29 nM.

As to `O=C(NC[C@@H]1CCCO1)c1oc2c(c1C(F)(F)F)-c1nn(CC3CCOCC3)cc1CC2` [Example 243, 2-[(oxan-4-yl)methyl]-N-{[(2S)-oxolan-2-yl]methyl}-8-(trifluoromethyl)-4,5-dihydro-2H-furo[2,3-g]indazole-7-carboxamide], the IC50 was 26 nM.

(Values after US12570666B2, “Furoindazole derivatives” (Bayer Aktiengesellschaft, priority 2019, dated 2026).)
